Article PMC10176470, “Engaging a Non-catalytic Cysteine Residue Drives Potent and Selective Inhibition of Caspase-6” (Journal of the American Chemical Society, 2023)

Columns and labels:
Format in all cases: cell-based
[1] = biological target: proteins of HEK293T cells transiently overexpressing caspase-6 (Homo sapiens, UniProt P33992); details: exp_ref Probe; protein MCM5 (P33992); analysis C6
[2] = biological target: proteins of HEK293T cells transiently overexpressing caspase-6 (Homo sapiens, UniProt Q14566); details: exp_ref Probe; protein MCM6 (Q14566); analysis C6
Sequence of proteins of HEK293T cells transiently overexpressing caspase-6 (Homo sapiens, UniProt Q14566) (Q14566 whole entry): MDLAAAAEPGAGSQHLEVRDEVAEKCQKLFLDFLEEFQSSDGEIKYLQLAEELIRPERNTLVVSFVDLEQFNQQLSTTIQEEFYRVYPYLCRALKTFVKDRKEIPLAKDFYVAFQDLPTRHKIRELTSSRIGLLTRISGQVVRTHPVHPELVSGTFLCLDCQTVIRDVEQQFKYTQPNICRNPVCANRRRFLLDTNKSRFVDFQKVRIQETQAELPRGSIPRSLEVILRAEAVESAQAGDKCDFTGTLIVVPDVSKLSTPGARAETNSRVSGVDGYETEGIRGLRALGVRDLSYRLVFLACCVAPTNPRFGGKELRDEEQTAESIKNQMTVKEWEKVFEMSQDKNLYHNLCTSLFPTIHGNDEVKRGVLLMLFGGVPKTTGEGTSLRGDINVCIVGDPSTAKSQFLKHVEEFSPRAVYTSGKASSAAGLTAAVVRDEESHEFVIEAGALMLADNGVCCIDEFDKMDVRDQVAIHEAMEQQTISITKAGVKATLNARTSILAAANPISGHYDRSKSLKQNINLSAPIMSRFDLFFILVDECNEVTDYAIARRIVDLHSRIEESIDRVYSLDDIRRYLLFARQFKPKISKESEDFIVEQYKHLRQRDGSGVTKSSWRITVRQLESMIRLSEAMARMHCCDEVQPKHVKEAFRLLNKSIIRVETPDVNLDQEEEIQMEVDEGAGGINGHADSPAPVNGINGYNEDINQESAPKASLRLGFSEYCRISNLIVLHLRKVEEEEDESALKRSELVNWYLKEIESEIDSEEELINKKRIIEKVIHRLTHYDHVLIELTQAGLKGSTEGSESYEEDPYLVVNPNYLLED

[3] = biological target: proteins of HEK293T cells transiently overexpressing caspase-6 (Homo sapiens, UniProt P17844); details: exp_ref Probe; protein DDX5 (P17844); analysis C6
Sequence of proteins of HEK293T cells transiently overexpressing caspase-6 (Homo sapiens, UniProt P17844) (P17844 whole entry): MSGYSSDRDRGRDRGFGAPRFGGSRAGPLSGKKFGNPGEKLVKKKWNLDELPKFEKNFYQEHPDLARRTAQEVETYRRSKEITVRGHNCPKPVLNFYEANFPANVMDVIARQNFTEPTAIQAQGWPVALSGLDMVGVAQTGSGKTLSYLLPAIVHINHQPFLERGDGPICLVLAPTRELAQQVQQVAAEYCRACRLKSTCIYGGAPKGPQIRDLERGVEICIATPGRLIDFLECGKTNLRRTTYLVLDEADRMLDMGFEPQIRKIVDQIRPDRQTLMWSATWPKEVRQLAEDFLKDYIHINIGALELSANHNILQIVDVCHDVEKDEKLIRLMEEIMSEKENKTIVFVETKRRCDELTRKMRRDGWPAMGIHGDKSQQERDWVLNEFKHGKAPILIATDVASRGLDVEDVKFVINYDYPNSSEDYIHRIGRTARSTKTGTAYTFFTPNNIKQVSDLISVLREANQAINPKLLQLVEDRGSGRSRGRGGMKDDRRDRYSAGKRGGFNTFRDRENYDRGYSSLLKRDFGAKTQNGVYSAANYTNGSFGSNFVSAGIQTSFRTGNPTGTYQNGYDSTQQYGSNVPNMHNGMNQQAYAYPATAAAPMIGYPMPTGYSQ

[4] = biological target: proteins of HEK293T cells transiently overexpressing caspase-6 (Homo sapiens, UniProt P29692); details: exp_ref Probe; protein EEF1D (P29692); analysis C6
Sequence of proteins of HEK293T cells transiently overexpressing caspase-6 (Homo sapiens, UniProt P29692) (P29692 whole entry): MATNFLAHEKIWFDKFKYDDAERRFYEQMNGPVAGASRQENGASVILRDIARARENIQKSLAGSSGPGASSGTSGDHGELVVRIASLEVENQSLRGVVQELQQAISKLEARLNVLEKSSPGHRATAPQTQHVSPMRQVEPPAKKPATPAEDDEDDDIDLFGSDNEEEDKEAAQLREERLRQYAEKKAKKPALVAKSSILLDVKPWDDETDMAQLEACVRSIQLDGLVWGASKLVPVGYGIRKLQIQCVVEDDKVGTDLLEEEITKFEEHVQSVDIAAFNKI

[5] = biological target: proteins of HEK293T cells transiently overexpressing caspase-6 (Homo sapiens, UniProt O75390); details: exp_ref Probe; protein CS (O75390); analysis C6
Sequence of proteins of HEK293T cells transiently overexpressing caspase-6 (Homo sapiens, UniProt O75390) (O75390 28-466): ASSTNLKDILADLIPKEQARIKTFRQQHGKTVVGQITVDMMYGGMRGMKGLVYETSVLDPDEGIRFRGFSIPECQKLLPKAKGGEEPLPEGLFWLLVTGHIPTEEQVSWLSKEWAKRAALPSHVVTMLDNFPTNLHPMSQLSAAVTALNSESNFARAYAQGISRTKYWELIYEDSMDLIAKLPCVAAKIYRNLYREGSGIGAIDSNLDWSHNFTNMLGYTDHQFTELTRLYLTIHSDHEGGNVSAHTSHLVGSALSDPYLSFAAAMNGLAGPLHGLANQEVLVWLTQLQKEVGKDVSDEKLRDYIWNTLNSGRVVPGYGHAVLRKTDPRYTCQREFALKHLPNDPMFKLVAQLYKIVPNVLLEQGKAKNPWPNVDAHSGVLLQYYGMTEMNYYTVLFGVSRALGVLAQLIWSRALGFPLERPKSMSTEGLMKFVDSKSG

[6] = biological target: T1, proteins of HEK293T cells transiently overexpressing caspase-6 (Homo sapiens, UniProt Q9NQC3); details: protein RTN4 (Q9NQC3), analysis C6
T1 sequence (Q9NQC3 1-1192): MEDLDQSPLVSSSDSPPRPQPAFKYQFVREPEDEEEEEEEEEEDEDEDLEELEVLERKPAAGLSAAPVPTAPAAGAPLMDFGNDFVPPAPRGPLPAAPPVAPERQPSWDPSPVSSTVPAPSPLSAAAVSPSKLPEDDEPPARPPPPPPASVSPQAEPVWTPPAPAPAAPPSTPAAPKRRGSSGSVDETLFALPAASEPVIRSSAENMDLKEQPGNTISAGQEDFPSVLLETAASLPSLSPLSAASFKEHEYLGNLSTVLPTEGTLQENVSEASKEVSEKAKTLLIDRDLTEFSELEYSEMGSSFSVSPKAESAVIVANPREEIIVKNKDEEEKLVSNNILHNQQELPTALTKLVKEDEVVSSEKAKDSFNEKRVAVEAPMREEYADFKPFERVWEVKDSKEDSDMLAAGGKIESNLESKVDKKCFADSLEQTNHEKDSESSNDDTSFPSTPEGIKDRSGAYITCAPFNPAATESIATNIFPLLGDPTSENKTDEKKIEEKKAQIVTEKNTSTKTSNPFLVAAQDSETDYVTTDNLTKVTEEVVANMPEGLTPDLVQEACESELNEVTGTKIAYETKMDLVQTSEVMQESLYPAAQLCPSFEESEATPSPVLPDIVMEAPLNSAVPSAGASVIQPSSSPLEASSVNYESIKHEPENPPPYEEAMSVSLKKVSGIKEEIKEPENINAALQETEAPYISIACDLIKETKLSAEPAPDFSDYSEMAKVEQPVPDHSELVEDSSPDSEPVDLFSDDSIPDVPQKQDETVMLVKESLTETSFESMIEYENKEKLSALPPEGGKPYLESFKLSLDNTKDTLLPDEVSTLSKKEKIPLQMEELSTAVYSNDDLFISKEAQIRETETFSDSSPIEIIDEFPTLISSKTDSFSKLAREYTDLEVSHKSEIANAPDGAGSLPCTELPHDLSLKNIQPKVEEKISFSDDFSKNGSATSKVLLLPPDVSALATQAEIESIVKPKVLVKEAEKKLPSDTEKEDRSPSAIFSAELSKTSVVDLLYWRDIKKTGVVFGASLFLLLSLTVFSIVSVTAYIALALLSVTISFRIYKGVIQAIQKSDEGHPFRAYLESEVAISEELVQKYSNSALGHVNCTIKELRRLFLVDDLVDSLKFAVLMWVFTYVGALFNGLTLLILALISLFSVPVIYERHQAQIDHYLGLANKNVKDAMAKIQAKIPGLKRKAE

[7] = biological target: T2, proteins of HEK293T cells transiently overexpressing caspase-6 (Homo sapiens, UniProt Q9UQ80); details: protein PA2G4 (Q9UQ80)
T2 sequence (Q9UQ80 1-394): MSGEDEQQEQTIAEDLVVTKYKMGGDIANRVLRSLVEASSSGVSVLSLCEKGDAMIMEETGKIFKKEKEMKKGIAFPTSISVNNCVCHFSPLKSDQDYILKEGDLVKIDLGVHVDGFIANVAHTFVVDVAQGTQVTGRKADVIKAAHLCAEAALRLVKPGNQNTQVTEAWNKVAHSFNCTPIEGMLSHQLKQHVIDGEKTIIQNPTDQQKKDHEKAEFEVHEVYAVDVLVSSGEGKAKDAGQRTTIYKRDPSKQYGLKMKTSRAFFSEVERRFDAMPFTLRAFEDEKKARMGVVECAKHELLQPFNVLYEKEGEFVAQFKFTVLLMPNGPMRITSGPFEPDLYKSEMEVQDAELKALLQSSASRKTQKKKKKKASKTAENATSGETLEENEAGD

[8] = biological target: proteins of HEK293T cells transiently overexpressing caspase-6 (Homo sapiens, UniProt P19013); details: Probe; protein KRT4 P19013
Sequence of proteins of HEK293T cells transiently overexpressing caspase-6 (Homo sapiens, UniProt P19013) (P19013 whole entry): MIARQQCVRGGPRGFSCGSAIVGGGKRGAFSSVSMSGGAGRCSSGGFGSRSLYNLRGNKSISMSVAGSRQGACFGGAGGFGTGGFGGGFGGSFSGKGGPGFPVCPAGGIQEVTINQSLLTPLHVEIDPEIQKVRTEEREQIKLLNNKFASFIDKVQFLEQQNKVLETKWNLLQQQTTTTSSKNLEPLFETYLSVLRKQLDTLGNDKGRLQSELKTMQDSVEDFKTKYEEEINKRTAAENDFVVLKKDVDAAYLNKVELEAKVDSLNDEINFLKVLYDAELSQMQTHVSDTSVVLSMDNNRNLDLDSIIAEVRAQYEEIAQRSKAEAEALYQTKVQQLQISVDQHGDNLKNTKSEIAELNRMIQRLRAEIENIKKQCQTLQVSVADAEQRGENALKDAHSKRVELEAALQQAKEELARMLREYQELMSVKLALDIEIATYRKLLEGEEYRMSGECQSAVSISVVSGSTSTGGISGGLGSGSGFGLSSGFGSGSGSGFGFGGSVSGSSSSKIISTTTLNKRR

[9] = biological target: proteins of HEK293T cells transiently overexpressing caspase-6 (Homo sapiens, UniProt P49588); details: Probe; protein AARS P49588
Sequence of proteins of HEK293T cells transiently overexpressing caspase-6 (Homo sapiens, UniProt P49588) (P49588 whole entry): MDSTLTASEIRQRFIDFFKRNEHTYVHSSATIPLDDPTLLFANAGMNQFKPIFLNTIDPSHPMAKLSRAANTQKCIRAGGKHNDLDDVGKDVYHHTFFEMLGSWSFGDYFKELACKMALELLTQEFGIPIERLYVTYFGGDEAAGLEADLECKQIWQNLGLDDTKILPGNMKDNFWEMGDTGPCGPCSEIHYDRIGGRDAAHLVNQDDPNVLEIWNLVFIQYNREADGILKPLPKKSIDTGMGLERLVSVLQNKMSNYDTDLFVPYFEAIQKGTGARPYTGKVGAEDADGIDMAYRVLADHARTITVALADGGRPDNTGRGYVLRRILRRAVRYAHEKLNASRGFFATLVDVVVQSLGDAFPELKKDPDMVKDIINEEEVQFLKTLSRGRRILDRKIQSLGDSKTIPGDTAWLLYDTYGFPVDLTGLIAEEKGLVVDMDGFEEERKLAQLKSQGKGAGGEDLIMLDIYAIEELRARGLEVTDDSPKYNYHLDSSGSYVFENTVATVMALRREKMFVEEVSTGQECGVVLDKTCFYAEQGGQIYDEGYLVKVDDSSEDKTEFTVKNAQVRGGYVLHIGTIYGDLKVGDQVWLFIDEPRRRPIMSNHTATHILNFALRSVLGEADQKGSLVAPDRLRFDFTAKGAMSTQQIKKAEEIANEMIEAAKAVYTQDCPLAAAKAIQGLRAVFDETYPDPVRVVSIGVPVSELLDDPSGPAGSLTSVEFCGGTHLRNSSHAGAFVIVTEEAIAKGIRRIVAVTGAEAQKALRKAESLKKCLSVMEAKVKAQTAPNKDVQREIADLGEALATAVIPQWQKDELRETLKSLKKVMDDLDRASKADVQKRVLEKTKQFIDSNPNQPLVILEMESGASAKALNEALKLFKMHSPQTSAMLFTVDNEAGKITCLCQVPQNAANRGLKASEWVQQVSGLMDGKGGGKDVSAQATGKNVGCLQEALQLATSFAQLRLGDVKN

[10] = biological target: T3, proteins of HEK293T cells transiently overexpressing caspase-6 (Homo sapiens, UniProt P26583)
T3 sequence (P26583 1-209): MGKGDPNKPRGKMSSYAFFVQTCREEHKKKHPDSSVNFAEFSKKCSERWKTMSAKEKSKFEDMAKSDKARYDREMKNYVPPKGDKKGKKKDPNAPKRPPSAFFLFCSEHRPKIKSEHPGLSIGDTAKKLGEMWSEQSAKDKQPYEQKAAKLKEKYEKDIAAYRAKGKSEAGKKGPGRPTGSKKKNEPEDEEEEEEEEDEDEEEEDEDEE

[11] = biological target: proteins of HEK293T cells transiently overexpressing caspase-6 (Homo sapiens, UniProt Q6P2Q9); details: exp_ref Probe; protein PRPF8 (Q6P2Q9); analysis C6
[12] = biological target: proteins of HEK293T cells transiently overexpressing caspase-6 (Homo sapiens, UniProt P43034); details: Probe; protein PAFAH1B1 P43034
Sequence of proteins of HEK293T cells transiently overexpressing caspase-6 (Homo sapiens, UniProt P43034) (P43034 whole entry): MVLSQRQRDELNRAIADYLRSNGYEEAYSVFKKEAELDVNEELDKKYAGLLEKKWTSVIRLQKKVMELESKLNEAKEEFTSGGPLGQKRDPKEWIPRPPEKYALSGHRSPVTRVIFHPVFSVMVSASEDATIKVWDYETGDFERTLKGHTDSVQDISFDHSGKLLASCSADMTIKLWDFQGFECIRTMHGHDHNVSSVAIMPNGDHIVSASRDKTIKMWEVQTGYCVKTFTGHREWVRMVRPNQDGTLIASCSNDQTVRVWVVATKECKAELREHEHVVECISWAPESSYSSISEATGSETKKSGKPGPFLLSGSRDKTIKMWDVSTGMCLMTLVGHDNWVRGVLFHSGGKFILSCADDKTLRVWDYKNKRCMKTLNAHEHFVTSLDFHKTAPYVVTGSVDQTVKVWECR

Sequence of proteins of HEK293T cells transiently overexpressing caspase-6 (Homo sapiens, UniProt P33992) (P33992 whole entry): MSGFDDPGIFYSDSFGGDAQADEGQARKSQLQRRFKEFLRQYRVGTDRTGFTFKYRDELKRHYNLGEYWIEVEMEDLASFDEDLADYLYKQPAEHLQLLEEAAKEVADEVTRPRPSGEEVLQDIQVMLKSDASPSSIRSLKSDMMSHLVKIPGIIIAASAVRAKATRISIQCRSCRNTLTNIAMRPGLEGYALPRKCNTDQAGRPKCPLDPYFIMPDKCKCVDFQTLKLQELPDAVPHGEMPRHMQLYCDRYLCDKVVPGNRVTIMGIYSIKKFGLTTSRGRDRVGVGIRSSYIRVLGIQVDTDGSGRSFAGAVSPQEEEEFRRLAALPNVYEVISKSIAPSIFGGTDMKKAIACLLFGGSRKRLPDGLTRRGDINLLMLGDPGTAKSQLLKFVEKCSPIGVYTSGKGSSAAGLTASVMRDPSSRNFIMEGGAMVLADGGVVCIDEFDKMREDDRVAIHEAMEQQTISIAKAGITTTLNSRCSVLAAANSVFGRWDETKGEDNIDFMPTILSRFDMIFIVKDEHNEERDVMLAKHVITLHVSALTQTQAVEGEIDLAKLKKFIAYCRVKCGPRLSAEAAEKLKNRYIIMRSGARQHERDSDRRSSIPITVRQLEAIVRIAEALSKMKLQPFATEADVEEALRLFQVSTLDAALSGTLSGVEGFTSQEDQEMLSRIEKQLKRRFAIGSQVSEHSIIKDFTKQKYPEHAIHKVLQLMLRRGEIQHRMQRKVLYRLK

**Q.** `C#CCOc1ccc([C@@H]2C[C@@H](C(=O)Nc3ccc(OC(F)(F)F)cc3)CN(S(=O)(=O)C=C)C2)cc1` (relative stereo) [13-t] was tested. Which enrich.exp.med [1] did it give?
**A.** Its enrich.exp.med is 1.028.

**Q.** And the enrich.exp.med [2]?
**A.** Its enrich.exp.med is 0.05791.

**Q.** And the enrich.exp.med [3]?
**A.** Its enrich.exp.med is -0.0188.

**Q.** What about the enrich.exp.med [4] of the same molecule?
**A.** Its enrich.exp.med is 0.2193.

**Q.** What about the enrich.exp.med [5] of the same molecule?
**A.** Its enrich.exp.med is -0.1126.

**Q.** And the enrich.exp.med.lin ([6]; Expt Probe)?
**A.** Its enrich.exp.med.lin is 6.436.

**Q.** And the enrich.exp.med.log2 ([6]; Expt Probe)?
**A.** The enrich.exp.med.log2 was 2.686.

**Q.** What about the enrich.exp.med ([6]; exp_ref Probe) of the same molecule?
**A.** The enrich.exp.med was 2.686.

**Q.** What about the enrich.exp.med.lin [7] of the same molecule?
**A.** Its enrich.exp.med.lin is 2.618.

**Q.** What about the enrich.exp.med.log2 [7] of the same molecule?
**A.** Its enrich.exp.med.log2 is 1.389.

**Q.** And the enrich.exp.med ([7]; exp_ref Probe, analysis C6)?
**A.** Its enrich.exp.med is 1.389.

**Q.** And the enrich.exp.med [8]?
**A.** Its enrich.exp.med is -4.171.

**Q.** And the enrich.exp.med [9]?
**A.** Its enrich.exp.med is -2.083.

**Q.** What about the enrich.exp.med ([10]; Probe, protein HMGB2 P26583) of the same molecule?
**A.** The enrich.exp.med was -1.024.

**Q.** What about the enrich.exp.med.lin ([10]; protein HMGB2 (P26583)) of the same molecule?
**A.** Its enrich.exp.med.lin is 0.4916.

**Q.** And the enrich.exp.med.log2 ([10]; protein HMGB2 (P26583))?
**A.** The enrich.exp.med.log2 was -1.024.

**Q.** What about the enrich.exp.med [11] of the same molecule?
**A.** The enrich.exp.med was 0.2125.

**Q.** And the enrich.exp.med [12]?
**A.** Its enrich.exp.med is -1.169.
